According to patent US12661404B2, “Methods and materials for tissue ablation” (Mayo Foundation for Medical Education and Research, priority 2020, dated 2026):

Columns and labels:
rat liver = settings: solubilized with ICG in 25%-LATTE, injected into rat liver
Procedure: Time-dependent evaluation of chemotherapy drug diffusion and retention following LATTE injection in rat liver. […] Post necropsy, near-infrared fluorescent scans (NIRF) showing ICG retention at the two injection sites. […] Fluorescent scans visualizing Doxorubicin at the medial location of the same liver.
Intrahepatic injections or LATTE mixtures were performed in Sprague Dawley rats via laparotomy. Anesthetized rats were placed in a supine position on a warming platform. The abdominal hair was removed with an electric shaver and scrubbed to disinfect the skin with triple applications of povidone-iodine alternating with 70% alcohol. […]
To assess differences in ICG or doxorubicin spreading and retention following intrahepatic injections, ex vivo spectral fluorescence imaging was performed on fixed liver tissues using the IVIS 200 system (PerkinElmer, Inc. USA). […] Cross-sectional images were acquired following near-infrared illumination at the excitation wavelength of 750 nm, while fluorescent emission was acquired at 850 nm to visualize indocyanine green (ICG); Doxorubicin was detected at an excitation wavelength of 460 nm and an emission wavelength of 560 nm. […] Fluorescent intensity was quantified in the region of interest (ROI) of each tissue. […]

[1] = test system: human hepatocellular carcinoma (Hep-G2) cells; assay: cells; settings: HepG2, 24 h, read-out: EC50, fractional viability
Procedure: HepG2 human liver cancer cell line (ATCC CRL10741; American Type Culture Collection, Manassas, VA, USA) were cultured in 75 cm^2 flasks using growth medium consisting of low glucose Dulbecco's Modified Eagle Medium (DMEM, ThermoFisher) and 10% heat-inactivated bovine serum that was supplemented with 100 IU penicillin and 10 μg/mL streptomycin (Thermo Fisher Scientific). […] The anticancer activity of LATTE on HepG2 was determined using WST-1 reagent (2-(4-Iodophenyl)-3-(4-nitrophenyl)-5-(2,4-disulfophenyl)-2H-tetrazolium sodium) assay as an indication of viability/cytotoxicity treatment. WST-1 viability assay is based on the reduction of tetrazolium salt, WST-1 to an insoluble formazan dye by electron transport across the plasma membrane in viable cells that alter the optical density of the media. […] Cell viability was calculated relative to control wells that received the growth medium alone.
All reported values are the means of three replicate experiments with each study having 8 wells per dose level. Plots of the log concentration versus fractional viability for each drug were generated for each study.

renal artery = test system: renal artery; parameters: species or system swine; settings: in vivo
Procedure: Healthy Yorkshire pigs (S&S Farms, Brentwood, CA) weighing 48 to 55 kg were acclimatized for at least 4 days under standard feeding conditions and suitable temperature. Pigs were anesthetized using intramuscular injection of 5 mg kg^−1 tiletamine-zolazepam (Telazol, Zoetis), […] xylazine, and 0.02 mg kg^−1 glycopyrrolate. Pigs were then placed in a supine position and intubated on an X-ray compatible operating table (Pannomed Aeron, DRE, KY). Following intubation, anesthesia was maintained with inhalation of 1.5-3% isoflurane. During the procedure, electrocardiogram, transcutaneous oxyhemoglobin saturation (SpO2), end-tidal CO2 concentration, inspired oxygen fraction, and core temperature were monitored. Percutaneous access to the carotid artery was obtained using ultrasound guidance (ACUSON 52000, Siemens) and fluoroscopy (OEC Elite C-Arm, GE Healthcare Systems, Chicago, IL). Access needle and wire were exchanged for a 5 French catheter (Cook Medical). Over a GT-glidewire (Terumo Medical), the tip of the catheter was advanced to the renal using contrast-enhanced fluoroscopy (350 mgI mL-1 Omnipaque, GE HealthCare, MA). […] The radiopacity of NanoGel or NS hydrogel and vessel patency were assessed using digital subtraction angiography. […] At necropsy, the embolized kidneys were explanted for fluorescence imaging and histology.

Q: With `COc1cccc2c1C(=O)c1c(O)c3c(c(O)c1C2=O)C[C@@](O)(C(=O)CO)C[C@@H]3O[C@H]1C[C@H](N)[C@H](O)[C@H](C)O1` [Doxorubicin] as the molecule, how does the “doxorubicin retention throughout the affected zone” value (rat liver) read?
A: The value was “up to 28 days”.

Q: What about the EC50 [1] of the same molecule?
A: The EC50 was 1.63 µM.

Q: “Nivo: immunotherapy agent Nivolumab (an anti PD-1 antibody)” was tested. Which “nivolumab localization (immunohistochemistry)” value (renal artery) did it give?
A: Its value is “localized inside the renal artery and in the surrounding area”.
